Laboratory results as given in patent US8993282B2, “Carotenoid fermentation method” (JX Nippon Oil & Energy Corporation, priority 2008, dated 2015).

Tested on: Paracoccus carotinifaciens strain E-396 (FERM BP-4283)
Test: Glutamate concentration series, 5 L fermentation tank culture, carotenoid by HPLC
Type: cell-based
Conditions: for Produced carotenoid concentration, 3-Hydroxyechinenone / Produced carotenoid concentration, Adonixanthin / Produced carotenoid concentration, Astaxanthin / Produced carotenoid concentration, Asteroidenone / Produced carotenoid concentration, Canthaxanthin / Produced carotenoid concentration, Echinenone / Produced carotenoid concentration, Phoenicoxanthin / Produced carotenoid concentration, Total Carotenoid / Produced carotenoid concentration, Zeaxanthin / Produced carotenoid concentration, β-Carotene / Produced carotenoid concentration, β-Cryptoxanthin: 100 hours
Procedure: In the examples, carotenoids were quantified by high performance liquid chromatography (HPLC) as follows.
Two columns of Wakosil-II 5 SIL-100 (φ4.6×250 mm) (Wako Pure Chemical Industries, Ltd., Japan) were connected to each other for use as a column. Elution was performed by flowing an n-hexane-tetrahydrofuran-methanol mixed solution (40:20:1), which was a mobile phase, at a flow rate of 1.0 mL/minute at a constant temperature around room temperature. The measurement was performed as follows. Samples were each dissolved in tetrahydrofuran and then diluted 100-fold with the mobile phase. Each dilution was injected in a volume of 20 μL. The column eluate was detected at a wavelength of 470 nm. As a reference for quantification, astaxanthin (SIGMA, Cat. No. A9335) was used. The astaxanthin concentration of the reference solution was determined using the following equation after measuring the absorbance (A) of the reference solution at 477 nm and the area percentage % (B) of the astaxanthin peak at the time of HPLC analysis under the above conditions. Astaxanthin concentration (mg/L)=A/2150×B×100
A medium of the following composition (glucose 20 g/L, filtered corn steep liquor 5 g/L, potassium dihydrogenphosphate 0.54 g/L, dipotassium hydrogenphosphate 12-hydrate 2.78 g/L, calcium chloride dihydrate 5.0 g/L, magnesium sulfate 7-hydrate 0.7 g/L, iron sulfate 7-hydrate 3.0 g/L, alcohol-based defoaming agent 0.2 g/L., pH 7.5) was dispensed in 100 ml volumes into 500 mL cotton-plugged Erlenmeyer flasks and sterilized in an autoclave at 121° C. for 15 minutes to prepare a flask medium for seed culture in 8 flasks.
Next, a medium of the following composition (glucose 40 g/L, corn steep liquor 30 g/L, ammonium sulfate 0.5 g/L, potassium dihydrogenphosphate 2.25 g/L, disodium hydrogenphosphate 12-hydrate 5.7 g/L, calcium chloride dihydrate 0.1 g/L, magnesium sulfate 7-hydrate 0.5 g/L, iron sulfate 7-hydrate 5 g/L, alcohol-based defoaming agent 0.5 g/L) was dispensed in 2.0 L volumes into 5 L fermentation tanks (8 tanks in total). To these tanks, monosodium L-glutamate monohydrate was added at 0, 1, 5, 15, 30, 50, 100 and 200 mmol/L, respectively, followed by sterilization in an autoclave at 121° C. for 30 minutes.
A loopful of Paracoccus carotinifaciens strain E-396 (FERM BP-4283) was inoculated into the flask medium for seed culture and then cultured with rotary shaking at 29° C. for 2 days at 100 rpm. The resulting culture solution was then inoculated in 80 mL, volumes into the individual fermentation tanks, followed by aerobic culture at 29° C. at an aeration volume of 1 vvm for 100 hours. To maintain a pH of 7.2 during culture, the pH was continuously controlled with 15% aqueous ammonia. Glucose was added in an amount of 30 g on day 1 and day 2 of culture to prevent glucose depletion. In addition, the minimum number of agitation rotations was set to 200 rpm, and the number of agitation rotations was varied such that the dissolved oxygen concentration in the culture solution was maintained at 2 to 4 ppm. Bubbling was detected with a bubble sensor and suppressed by automatic addition of an alcohol-based defoaming agent.
At the completion of culture, each culture solution was measured for its carotenoid concentration by HPLC.

[1] = Glutamic acid concentration 1 mmol/L
[2] = Glutamic acid concentration 5 mmol/L
[3] = Glutamic acid concentration 15 mmol/L
[4] = Glutamic acid concentration 30 mmol/L
[5] = Glutamic acid concentration 50 mmol/L
[6] = Glutamic acid concentration 100 mmol/L
[7] = Glutamic acid concentration 200 mmol/L

Structure (SMILES): N[C@@H](CCC(=O)O)C(=O)O [Glutamic acid, glutamic acid]
- Produced carotenoid concentration, 3-Hydroxyechinenone [1]: 0.2 mg/L
- Produced carotenoid concentration, Adonixanthin [1]: 7.8 mg/L
- Produced carotenoid concentration, Astaxanthin [1]: 18.3 mg/L
- Produced carotenoid concentration, Asteroidenone [1]: 0.4 mg/L
- Produced carotenoid concentration, Canthaxanthin [1]: 2.0 mg/L
- Produced carotenoid concentration, Echinenone [1]: 1.6 mg/L
- Produced carotenoid concentration, Phoenicoxanthin [1]: 5.1 mg/L
- Produced carotenoid concentration, Total Carotenoid [1]: 39.9 mg/L
- Produced carotenoid concentration, Zeaxanthin [1]: 0.17 mg/L
- Produced carotenoid concentration, β-Carotene [1]: 4.3 mg/L
- Produced carotenoid concentration, β-Cryptoxanthin [1]: 0.05 mg/L
- Produced carotenoid concentration, 3-Hydroxyechinenone [2]: 0.3 mg/L
- Produced carotenoid concentration, Adonixanthin [2]: 7.8 mg/L
- Produced carotenoid concentration, Astaxanthin [2]: 27.3 mg/L
- Produced carotenoid concentration, Asteroidenone [2]: 0.4 mg/L
- Produced carotenoid concentration, Canthaxanthin [2]: 3.7 mg/L
- Produced carotenoid concentration, Echinenone [2]: 1.9 mg/L
- Produced carotenoid concentration, Phoenicoxanthin [2]: 7.8 mg/L
- Produced carotenoid concentration, Total Carotenoid [2]: 55.7 mg/L
- Produced carotenoid concentration, Zeaxanthin [2]: 0.18 mg/L
- Produced carotenoid concentration, β-Carotene [2]: 6.2 mg/L
- Produced carotenoid concentration, β-Cryptoxanthin [2]: 0.07 mg/L
- Produced carotenoid concentration, 3-Hydroxyechinenone [3]: 0.3 mg/L
- Produced carotenoid concentration, Adonixanthin [3]: 9.6 mg/L
- Produced carotenoid concentration, Astaxanthin [3]: 30.8 mg/L
- Produced carotenoid concentration, Asteroidenone [3]: 0.6 mg/L
- Produced carotenoid concentration, Canthaxanthin [3]: 3.0 mg/L
- Produced carotenoid concentration, Echinenone [3]: 2.1 mg/L
- Produced carotenoid concentration, Phoenicoxanthin [3]: 7.2 mg/L
- Produced carotenoid concentration, Total Carotenoid [3]: 59.7 mg/L
- Produced carotenoid concentration, Zeaxanthin [3]: 0.19 mg/L
- Produced carotenoid concentration, β-Carotene [3]: 5.8 mg/L
- Produced carotenoid concentration, β-Cryptoxanthin [3]: 0.07 mg/L
- Produced carotenoid concentration, 3-Hydroxyechinenone [4]: 0.3 mg/L
- Produced carotenoid concentration, Adonixanthin [4]: 9.3 mg/L
- Produced carotenoid concentration, Astaxanthin [4]: 30.3 mg/L
- Produced carotenoid concentration, Asteroidenone [4]: 0.6 mg/L
- Produced carotenoid concentration, Canthaxanthin [4]: 3.1 mg/L
- Produced carotenoid concentration, Echinenone [4]: 2.2 mg/L
- Produced carotenoid concentration, Phoenicoxanthin [4]: 7.4 mg/L
- Produced carotenoid concentration, Total Carotenoid [4]: 59.4 mg/L
- Produced carotenoid concentration, Zeaxanthin [4]: 0.20 mg/L
- Produced carotenoid concentration, β-Carotene [4]: 5.9 mg/L
- Produced carotenoid concentration, β-Cryptoxanthin [4]: 0.08 mg/L
- Produced carotenoid concentration, 3-Hydroxyechinenone [5]: 0.4 mg/L
- Produced carotenoid concentration, Adonixanthin [5]: 10.8 mg/L
- Produced carotenoid concentration, Astaxanthin [5]: 30.9 mg/L
- Produced carotenoid concentration, Asteroidenone [5]: 0.9 mg/L
- Produced carotenoid concentration, Canthaxanthin [5]: 2.0 mg/L
- Produced carotenoid concentration, Echinenone [5]: 2.3 mg/L
- Produced carotenoid concentration, Phoenicoxanthin [5]: 6.4 mg/L
- Produced carotenoid concentration, Total Carotenoid [5]: 58.9 mg/L
- Produced carotenoid concentration, Zeaxanthin [5]: 0.21 mg/L
- Produced carotenoid concentration, β-Carotene [5]: 4.9 mg/L
- Produced carotenoid concentration, β-Cryptoxanthin [5]: 0.07 mg/L
- Produced carotenoid concentration, 3-Hydroxyechinenone [6]: 0.3 mg/L
- Produced carotenoid concentration, Adonixanthin [6]: 9.2 mg/L
- Produced carotenoid concentration, Astaxanthin [6]: 28.6 mg/L
- Produced carotenoid concentration, Asteroidenone [6]: 0.6 mg/L
- Produced carotenoid concentration, Canthaxanthin [6]: 2.8 mg/L
- Produced carotenoid concentration, Echinenone [6]: 2.0 mg/L
- Produced carotenoid concentration, Phoenicoxanthin [6]: 7.0 mg/L
- Produced carotenoid concentration, Total Carotenoid [6]: 56.2 mg/L
- Produced carotenoid concentration, Zeaxanthin [6]: 0.18 mg/L
- Produced carotenoid concentration, β-Carotene [6]: 5.5 mg/L
- Produced carotenoid concentration, β-Cryptoxanthin [6]: 0.06 mg/L
- Produced carotenoid concentration, 3-Hydroxyechinenone [7]: 0.3 mg/L
- Produced carotenoid concentration, Adonixanthin [7]: 7.6 mg/L
- Produced carotenoid concentration, Astaxanthin [7]: 23.5 mg/L
- Produced carotenoid concentration, Asteroidenone [7]: 0.5 mg/L
- Produced carotenoid concentration, Canthaxanthin [7]: 2.4 mg/L
- Produced carotenoid concentration, Echinenone [7]: 1.7 mg/L
- Produced carotenoid concentration, Phoenicoxanthin [7]: 5.9 mg/L
- Produced carotenoid concentration, Total Carotenoid [7]: 46.7 mg/L
- Produced carotenoid concentration, Zeaxanthin [7]: 0.15 mg/L
- Produced carotenoid concentration, β-Carotene [7]: 4.6 mg/L
- Produced carotenoid concentration, β-Cryptoxanthin [7]: 0.05 mg/L
- produced carotenoid concentration compared to the sample without glutamic acid (glutamic acid at concentrations from 1 to 200 mmol/L): higher produced carotenoid concentration
